Laboratory results: ChEMBL document CHEMBL4699440, “Comprehensive review on the anti-bacterial activity of 1,2,3-triazole hybrids” (Eur J Med Chem, 2019)
Converted amounts (≈) assume the structure as drawn. One block for each molecule: values may come before it.

How the values were obtained:
Klebsiella pneumoniae [1] = assay: Antibacterial activity against Klebsiella pneumonia RCMB 010058 by broth dilution method; assay type: functional
Bacillus subtilis = assay: Antibacterial activity against Bacillus subtilis RCMB 010067 by broth dilution method; assay type: functional
Staphylococcus aureus [2] = assay: Antibacterial activity against Staphylococcus aureus RCMB 010025 by broth dilution method; assay type: functional
Pseudomonas aeruginosa [3] = assay: Antibacterial activity against Pseudomonas aeruginosa RCMB 010043 by broth dilution method; assay type: functional
Streptococcus pneumoniae = assay: Antibacterial activity against Streptococcus pneumoniae RCMB 010010 by broth dilution method; assay type: functional
Escherichia coli [4] = assay: Antibacterial activity against Escherichia coli RCMB 010052 by broth dilution method; assay type: functional
Streptococcus pyogenes = assay: Antibacterial activity against Streptococcus pyogenes ATCC 35552 incubated for 24 hrs by tube dilution method; assay type: functional
Pseudomonas aeruginosa [5] = assay: Antibacterial activity against Pseudomonas aeruginosa ATCC 12454 incubated for 24 hrs by tube dilution method; assay type: functional
Staphylococcus aureus [6] = assay: Antibacterial activity against Staphylococcus aureus ATCC 25923 incubated for 24 hrs by tube dilution method; assay type: functional
Klebsiella pneumoniae [7] = assay: Antibacterial activity against Klebsiella pneumoniae ATCC 15380 incubated for 24 hrs by tube dilution method; assay type: functional
Escherichia coli [8] = assay: Antibacterial activity against Escherichia coli ATCC 25922 incubated for 24 hrs by tube dilution method; assay type: functional
Candida albicans = assay: Antifungal activity against Candida albicans ATCC 50193 incubated for 24 hrs by microdilution method; assay type: functional
Pseudomonas aeruginosa [9] = assay: Antibacterial activity against Pseudomonas aeruginosa ATCC 27853 incubated for 24 hrs by microdilution method; assay type: functional
Escherichia coli [10] = assay: Antibacterial activity against Escherichia coli ATCC 25922 incubated for 24 hrs by microdilution method; assay type: functional
Enterococcus faecalis [11] = assay: Antibacterial activity against Enterococcus faecalis ATCC 29212 incubated for 24 hrs by microdilution method; assay type: functional
Proteus mirabilis = assay: Antibacterial activity against Proteus mirabilis ATCC 35659 incubated for 24 hrs by microdilution method; assay type: functional
Staphylococcus aureus [12] = assay: Antibacterial activity against Staphylococcus aureus ATCC 25923 incubated for 24 hrs by microdilution method; assay type: functional
Bacillus cereus [13] = assay: Antibacterial activity against Bacillus cereus ATCC 10876 incubated for 24 hrs by microdilution method; assay type: functional
Aspergillus brasiliensis = assay: Antifungal activity against Aspergillus brasiliensis ATCC 16404 incubated for 24 hrs by microdilution method; assay type: functional
Escherichia coli [14] = assay: Antibacterial activity against Escherichia coli NIHJ JC2 incubated for 20 hrs by agar dilution method; assay type: functional
Staphylococcus aureus [15] = assay: Antibacterial activity against Staphylococcus aureus 209P JC1 incubated for 20 hrs by agar dilution method; assay type: functional
Pseudomonas aeruginosa [16] = assay: Antibacterial activity against Pseudomonas aeruginosa 12 incubated for 20 hrs by agar dilution method; assay type: functional
Staphylococcus aureus [17] = assay: Antibacterial activity against Staphylococcus aureus ATCC 29737 incubated for 24 hrs; assay type: functional
[18] = tested on: Sphingomonas paucimobilis; assay: Antibacterial activity against Flavobacterium devorans ATCC 10829 incubated for 24 hrs; assay type: functional
Penicillium chrysogenum = assay: Antifungal activity against Penicillium chrysogenum NCIM 723 incubated for 48 hrs; assay type: functional
Curvularia lunata = assay: Antifungal activity against Curvularia lunata NCIM 1131 incubated for 48 hrs; assay type: functional
Bacillus cereus [19] = assay: Antibacterial activity against Bacillus cereus ATCC 6630 incubated for 24 hrs; assay type: functional
Aspergillus niger = assay: Antifungal activity against Aspergillus niger NCIM 1196 incubated for 48 hrs; assay type: functional
Pseudomonas fluorescens = assay: Antibacterial activity against Pseudomonas fluorescens NCIM 2173 incubated for 24 hrs; assay type: functional
Micrococcus luteus = assay: Antibacterial activity against Micrococcus Luteus ATCC 398 incubated for 24 hrs; assay type: functional
Escherichia coli [20] = assay: Antibacterial activity against Escherichia coli NCIM 2256 incubated for 24 hrs; assay type: functional
Pseudomonas aeruginosa [21] = assay: Antibacterial activity against Pseudomonas aeruginosa MTCC 2453 incubated overnight by broth dilution technique; assay type: functional, organism-based
Salmonella enterica = assay: Antibacterial activity against Salmonella enterica MTCC 3224 incubated overnight by broth dilution technique; assay type: functional, organism-based
Klebsiella pneumoniae [22] = assay: Antibacterial activity against Klebsiella pneumoniae ATCC 700603 incubated overnight by broth dilution technique; assay type: functional, organism-based
Enterococcus faecalis [23] = assay: Antibacterial activity against Enterococcus faecalis MTCC 439 incubated overnight by broth dilution technique; assay type: functional, organism-based
Escherichia coli [24] = assay: Antibacterial activity against Escherichia coli ATCC 25922 incubated overnight by broth dilution technique; assay type: functional, organism-based

- MIC (Streptococcus pyogenes): 5.5 µg/mL (≈ 10.7 µM)
- MIC (Pseudomonas aeruginosa [5]): 5.5 µg/mL (≈ 10.7 µM)
- MIC (Staphylococcus aureus [6]): 5.5 µg/mL (≈ 10.7 µM)
- MIC (Klebsiella pneumoniae [7]): 5.5 µg/mL (≈ 10.7 µM)
- MIC (Escherichia coli [8]): 5.5 µg/mL (≈ 10.7 µM)
SMILES: O=Cc1cn(-c2ccccc2)nc1-c1ccccc1OCc1cn(Cc2ccc(Br)cc2)nn1

- MIC (Streptococcus pyogenes): 5.5 µg/mL (≈ 11.7 µM)
- MIC (Pseudomonas aeruginosa [5]): 5.5 µg/mL (≈ 11.7 µM)
- MIC (Staphylococcus aureus [6]): 5.5 µg/mL (≈ 11.7 µM)
- MIC (Klebsiella pneumoniae [7]): 5.5 µg/mL (≈ 11.7 µM)
- MIC (Escherichia coli [8]): 5.5 µg/mL (≈ 11.7 µM)
SMILES: O=Cc1cn(-c2ccccc2)nc1-c1cc(Cl)ccc1OCc1cn(Cc2ccccc2)nn1

- MIC (Streptococcus pyogenes): 5.5 µg/mL (≈ 10.9 µM)
- MIC (Pseudomonas aeruginosa [5]): 5.5 µg/mL (≈ 10.9 µM)
- MIC (Staphylococcus aureus [6]): 5.5 µg/mL (≈ 10.9 µM)
- MIC (Klebsiella pneumoniae [7]): 5.5 µg/mL (≈ 10.9 µM)
- MIC (Escherichia coli [8]): 5.5 µg/mL (≈ 10.9 µM)
SMILES: O=Cc1cn(-c2ccccc2)nc1-c1cc(Cl)ccc1OCc1cn(Cc2cccc(Cl)c2)nn1

- MIC (Streptococcus pyogenes): 6.5 µg/mL (≈ 14 µM)
- MIC (Pseudomonas aeruginosa [5]): 6.5 µg/mL (≈ 14 µM)
- MIC (Staphylococcus aureus [6]): 6.5 µg/mL (≈ 14 µM)
- MIC (Klebsiella pneumoniae [7]): 6.5 µg/mL (≈ 14 µM)
- MIC (Escherichia coli [8]): 6.5 µg/mL (≈ 14 µM)
SMILES: COc1ccc(Cn2cc(COc3ccccc3-c3nn(-c4ccccc4)cc3C=O)nn2)cc1

- MIC (Streptococcus pyogenes): 5.5 µg/mL (≈ 12.6 µM)
- MIC (Pseudomonas aeruginosa [5]): 5.5 µg/mL (≈ 12.6 µM)
- MIC (Staphylococcus aureus [6]): 5.5 µg/mL (≈ 12.6 µM)
- MIC (Klebsiella pneumoniae [7]): 5.5 µg/mL (≈ 12.6 µM)
- MIC (Escherichia coli [8]): 5.5 µg/mL (≈ 12.6 µM)
SMILES: O=Cc1cn(-c2ccccc2)nc1-c1ccccc1OCc1cn(Cc2ccccc2)nn1

- MIC (Streptococcus pyogenes): 5.5 µg/mL (≈ 11.5 µM)
- MIC (Pseudomonas aeruginosa [5]): 5.5 µg/mL (≈ 11.5 µM)
- MIC (Staphylococcus aureus [6]): 5.5 µg/mL (≈ 11.5 µM)
- MIC (Klebsiella pneumoniae [7]): 5.5 µg/mL (≈ 11.5 µM)
- MIC (Escherichia coli [8]): 5.5 µg/mL (≈ 11.5 µM)
SMILES: O=Cc1cn(-c2ccccc2)nc1-c1ccccc1OCc1cn(Cc2ccc(C(=O)O)cc2)nn1

- MIC (Streptococcus pyogenes): 5.5 µg/mL (≈ 11.4 µM)
- MIC (Pseudomonas aeruginosa [5]): 5.5 µg/mL (≈ 11.4 µM)
- MIC (Staphylococcus aureus [6]): 5.5 µg/mL (≈ 11.4 µM)
- MIC (Klebsiella pneumoniae [7]): 5.5 µg/mL (≈ 11.4 µM)
- MIC (Escherichia coli [8]): 5.5 µg/mL (≈ 11.4 µM)
SMILES: Cc1ccc(OCc2cn(Cc3cccc(Cl)c3)nn2)c(-c2nn(-c3ccccc3)cc2C=O)c1

Continued, molecule first:

SMILES: CC(=O)OCC(CSc1nnc(-c2nnn(-c3ccccc3Cl)c2-c2nnc(SCC(COC(C)=O)OC(C)=O)o2)o1)OC(C)=O (stereo unspecified)
- MIC (Klebsiella pneumoniae [1]): 31.2 µg/mL (≈ 44.9 µM)
- MIC (Bacillus subtilis): 31.2 µg/mL (≈ 44.9 µM)
- MIC (Staphylococcus aureus [2]): 31.2 µg/mL (≈ 44.9 µM)
- MIC (Pseudomonas aeruginosa [3]): 31.2 µg/mL (≈ 44.9 µM)
- MIC (Streptococcus pneumoniae): 31.2 µg/mL (≈ 44.9 µM)
- MIC (Escherichia coli [4]): 31.2 µg/mL (≈ 44.9 µM)

SMILES: CC(=O)OCCCSc1nnc(-c2nnn(-c3ccccc3Cl)c2-c2nnc(SCCCOC(C)=O)o2)o1
- MIC (Klebsiella pneumoniae [1]): 31.2 µg/mL (≈ 53.9 µM)
- MIC (Bacillus subtilis): 31.2 µg/mL (≈ 53.9 µM)
- MIC (Staphylococcus aureus [2]): 31.2 µg/mL (≈ 53.9 µM)
- MIC (Pseudomonas aeruginosa [3]): 31.2 µg/mL (≈ 53.9 µM)
- MIC (Streptococcus pneumoniae): 31.2 µg/mL (≈ 53.9 µM)
- MIC (Escherichia coli [4]): 31.2 µg/mL (≈ 53.9 µM)

SMILES: OCCSc1nnc(-c2nnn(-c3ccccc3Cl)c2-c2nnc(SCCO)o2)o1
- MIC (Klebsiella pneumoniae [1]): 4 µg/mL (≈ 8.55 µM)
- MIC (Bacillus subtilis): 4 µg/mL (≈ 8.55 µM)
- MIC (Staphylococcus aureus [2]): 4 µg/mL (≈ 8.55 µM)
- MIC (Pseudomonas aeruginosa [3]): 4 µg/mL (≈ 8.55 µM)
- MIC (Streptococcus pneumoniae): 4 µg/mL (≈ 8.55 µM)
- MIC (Escherichia coli [4]): 4 µg/mL (≈ 8.55 µM)

SMILES: CCCCCCCCCCCCCCn1nnc(-c2n[nH]c(=S)n2-c2ccccc2)c1-c1n[nH]c(=S)n1-c1ccccc1
- MIC (Candida albicans): 2 µg/mL (≈ 3.25 µM)
- MIC (Pseudomonas aeruginosa [9]): 2 µg/mL (≈ 3.25 µM)
- MIC (Escherichia coli [10]): 2 µg/mL (≈ 3.25 µM)
- MIC (Enterococcus faecalis [11]): 2 µg/mL (≈ 3.25 µM)
- MIC (Proteus mirabilis): 2 µg/mL (≈ 3.25 µM)
- MIC (Staphylococcus aureus [12]): 2 µg/mL (≈ 3.25 µM)
- MIC (Bacillus cereus [13]): 2 µg/mL (≈ 3.25 µM)
- MIC (Aspergillus brasiliensis): 2 µg/mL (≈ 3.25 µM)

SMILES: NC1CCN(c2c(Cl)c3c(c(=O)c(C(=O)O)cn3C3CC3)c3[nH]nnc23)C1 (stereo unspecified)
- MIC (Escherichia coli [14]): 0.05 µg/mL (≈ 0.129 µM)
- MIC (Staphylococcus aureus [15]): 0.05 µg/mL (≈ 0.129 µM)
- MIC (Pseudomonas aeruginosa [16]): 0.05 µg/mL (≈ 0.129 µM)

SMILES: NC1CCN(c2c(F)c3c(c(=O)c(C(=O)O)cn3C3CC3)c3[nH]nnc23)C1 (stereo unspecified)
- MIC (Escherichia coli [14]): 0.05 µg/mL (≈ 0.134 µM)
- MIC (Staphylococcus aureus [15]): 0.05 µg/mL (≈ 0.134 µM)
- MIC (Pseudomonas aeruginosa [16]): 0.05 µg/mL (≈ 0.134 µM)

SMILES: O=C(O)c1cn(C2CC2)c2c(F)c(N3CCCCC3)c3nn[nH]c3c2c1=O
- MIC (Escherichia coli [14]): 0.05 µg/mL (≈ 0.135 µM)
- MIC (Staphylococcus aureus [15]): 0.05 µg/mL (≈ 0.135 µM)
- MIC (Pseudomonas aeruginosa [16]): 0.05 µg/mL (≈ 0.135 µM)

SMILES: NCC1CCN(c2c(F)c3c(c(=O)c(C(=O)O)cn3C3CC3)c3[nH]nnc23)C1 (stereo unspecified)
- MIC (Escherichia coli [14]): 0.05 µg/mL (≈ 0.129 µM)
- MIC (Staphylococcus aureus [15]): 0.05 µg/mL (≈ 0.129 µM)
- MIC (Pseudomonas aeruginosa [16]): 0.05 µg/mL (≈ 0.129 µM)

SMILES: Cc1cc(OCc2cn(Cc3cccc([N+](=O)[O-])c3)nn2)cc2oc(=O)ccc12
- MIC (Staphylococcus aureus [17]): 2 µg/mL (≈ 5.1 µM)
- MIC [18]: 2 µg/mL (≈ 5.1 µM)
- MIC (Penicillium chrysogenum): 2 µg/mL (≈ 5.1 µM)
- MIC (Curvularia lunata): 2 µg/mL (≈ 5.1 µM)
- MIC (Bacillus cereus [19]): 2 µg/mL (≈ 5.1 µM)
- MIC (Aspergillus niger): 2 µg/mL (≈ 5.1 µM)
- MIC (Pseudomonas fluorescens): 2 µg/mL (≈ 5.1 µM)
- MIC (Micrococcus luteus): 2 µg/mL (≈ 5.1 µM)
- MIC (Escherichia coli [20]): 2 µg/mL (≈ 5.1 µM)

SMILES: Cc1cc(OCc2cn(Cc3cccc(Cl)c3)nn2)cc2oc(=O)ccc12
- MIC (Staphylococcus aureus [17]): 2 µg/mL (≈ 5.24 µM)
- MIC [18]: 2 µg/mL (≈ 5.24 µM)
- MIC (Penicillium chrysogenum): 2 µg/mL (≈ 5.24 µM)
- MIC (Curvularia lunata): 2 µg/mL (≈ 5.24 µM)
- MIC (Bacillus cereus [19]): 2 µg/mL (≈ 5.24 µM)
- MIC (Aspergillus niger): 2 µg/mL (≈ 5.24 µM)
- MIC (Pseudomonas fluorescens): 2 µg/mL (≈ 5.24 µM)
- MIC (Micrococcus luteus): 2 µg/mL (≈ 5.24 µM)
- MIC (Escherichia coli [20]): 2 µg/mL (≈ 5.24 µM)

SMILES: O=C(O)c1ccc(-n2cc(COc3cccc4cccnc34)nn2)cc1
- IC50 (Pseudomonas aeruginosa [21]): 106 µg/mL (≈ 306 µM)
- IC50 (Salmonella enterica): 106 µg/mL (≈ 306 µM)
- IC50 (Klebsiella pneumoniae [22]): 106 µg/mL (≈ 306 µM)
- IC50 (Enterococcus faecalis [23]): 106 µg/mL (≈ 306 µM)
- IC50 (Escherichia coli [24]): 106 µg/mL (≈ 306 µM)
